Experimental data from patent publication US20220193039A1, “APPLICATION OF 2,4,5-TRISUBSTITUTED 1,2,4-TRIAZOLONES IN ANTIVIRAL THERAPY” (priority 2020, published 2022).
Where two headings read alike, the source gives them in different places.

Experiments:
Format in all cases: cell-based
[1] = tested on: influenza virus B/Lee/40; assay: microbe, parasite or virus in culture; conditions: unidentified influenza virus, MDCK, 72 h, read-out: EC50 influenza virus B/Lee/40 (Blee-MDCK)
[2] = Cytotoxicity test of the drug on MDCK (CellTiter-Glo); conditions: dog, MDCK cells
Procedure: (2) Cytotoxicity test of the drug
(§1) 1) MDCK cell (purchased from ATCC, Catalog:CCL-34) was inoculated into a 96-well plate at a concentration of 1.5×10^4 cell/well, wherein the medium is DMEM (purchased from Gibco, Catalog No.: 11995065) containing 10% FBS (purchased from Gibco, Catalog No.: 16000044), and cultured for 24 hrs at 37° C. in a CO2 incubator.
2) Before the experiment, the cells were wahsed 3 times with PBS (purchased from Gibco, Catalog No.: 10010049), 150 μL of D/F-12 medium (purchased from Gibco, Catalog No.: 11330032) containing 2 μg/mL TPCK (purchased from Sigma, Catalog No.:T1426) was added. […]
(§2) 3) Buffer and substrate of CellTiter-Glo® Luminescent Cell Viability Assay Kit (purchased from Promega, Catalog No.:G7573) were mixed in dark as the work solution. […] After stabilizing the signal in dark for 5 min, chemiluminescence was determined by an enzyme-labeled instrument (purchased from Molecular Devices, SpectraMax M5), the plate reading program was the CellTiter-Glo preset program, and the cytotoxicity was calculated: […]
(§3) wherein A was the reads from the enzyme-labeled instrument.

[3] = tested on: enterovirus strain CB3; assay: Anti-enterovirus activity in Vero cells (CellTiter-Glo)
Procedure: (1) Evaluation of anti-enterovirus activity of the drug
as §1, with “Vero cells” for “MDCK cell”, “Catalog No.:CCL-81) were” for “Catalog:CCL-34) was”, “96 wells” for “96-well”, “1×10^4 cells/well,” for “1.5×10^4 cell/well,”, “2%” for “10%”
2) Before the experiment, the cells were wahsed 3 times with PBS (purchased from Gibco, Catalog No.: 10010049), 100 μL of DMEM medium (purchased from Gibco, Catalog No.:11995065) containing 2% FBS (purchased from Gibco, Catalog No.: 16000044) was added. […] Finally, 50 μL of the enterovirus strain CB3 (preserved in Academy of Military Medical Sciences) diluted with DMEM medium containing 2% FBS was added to reach 100 TCID50 for each well. […]
as §2, with “After stablizing” for “After stabilizing”, “for 3” for “for 5”, “the cell viability” for “the cytotoxicity”
as §3

[4] = tested on: influenza virus A/Zhenxing1109/2010; assay: microbe, parasite or virus in culture; conditions: unidentified influenza virus, MDCK, 72 h, read-out: EC50 influenza virus A/Zhenxing1109/2010 (ZX1109-MDCK)
[5] = tested on: CA6; assay: Anti-enterovirus activity, CA6-RD; conditions: RD cells
[6] = tested on: EVD68; assay: Anti-enterovirus activity, EVD68-RD; conditions: RD cells
[7] = tested on: influenza virus A/PR/8; assay: microbe, parasite or virus in culture; conditions: unidentified influenza virus, MDCK, 72 h, read-out: EC50 influenza virus A/PR/8 (PR8-MDCK)
[8] = tested on: EV71; assay: Anti-enterovirus activity, EV71-RD; conditions: Enterovirus A, RD cells
[9] = tested on: SARS-CoV-2 (nCoV-2019BetaCoV/Wuhan/WIV04/2019 strain); assay: microbe, parasite or virus in culture; conditions: for inhibition of viral RNA load in the cells: Vero E6, dose-dependent; for EC50: Severe acute respiratory syndrome coronavirus 2, Vero C1008, Vero E6 cells, viral RNA copy number, read-out: EC50 against SARS-CoV-2
[10] = tested on: zika virus strain SZ-SMGC-01; assay: Anti-zika virus activity in BHK or Vero cells (CellTiter-Glo); conditions: preliminary test results
Procedure: (1) Evaluation of anti-zika virus activity of the drug
1) BHK cells (preserved in Academy of Military Medical Sciences) or Vero cells (preserved in Academy of Military Medical Sciences) were inoculated into a 96 wells plate at a concentration of 5×10^3 cells/well for BHK cells and 1×10^4 cells/well for Vero cells, wherein the medium is DMEM (purchased from Gibco, Catalog No.: 11995065) containing 10% FBS (purchased from Gibco, Catalog No.: 16000044), and cultured for 24 hrs at 37° C. in a CO2 incubator.
2) The culture medium in the 96-well plate was discarded, 100 μL of DMEM medium (purchased from Gibco, Catalog No.:11995065) containing 2% FBS (purchased from Gibco, Catalog No.: 16000044) was added. […] Finally, 50 μL of the zika virus strain SZ-SMGC-01 (preserved in Academy of Military Medical Sciences) diluted with DMEM medium containing 2% FBS was added to reach 100 TCID50 for each well. […]
as §2, with “for 2” for “for 5”, “the cell viability” for “the cytotoxicity”
as §3

[11] = tested on: influenza virus A/Hongkong/08/1968; assay: microbe, parasite or virus in culture; conditions: unidentified influenza virus, MDCK, 72 h, read-out: EC50 influenza virus A/Hongkong/08/1968 (HK68-MDCK)
[12] = tested on: Vero E6 cells; assay: Cytotoxicity test of drug, CCK-8 kit; conditions: at below 10 μM, FIG. 1
Procedure: (§4) (5) Cytotoxicity test of drug
(§5) The detection of the drug cytotoxicity was performed using CCK-8 kit (Beoytime). Specific steps were as follows:
(§6) 1) 1×104 Vero E6 (ATCC) cells were placed in a 96-well plate and incubated at 37° C. for 8 hours.
(§7) 2) The drug was diluted with DMSO to an appropriate concentration of mother liquor, and then diluted with MEM medium (purchased from Gibco, Catalog No. 10370021) containing 2% FBS (purchased from Gibco, Catalog No. 16000044) to the same concentration as that for the drug treatment. The original medium in the 96-well plate was discarded, 100 μL of drug-containing MEM medium was added to the cells, and three replicate wells were prepared for each concentration. Vehicle control (DMSO and medium were added to the cell wells, without adding drug) and blank control (DMSO and medium were added to the wells, without cells) were set up. After the drug was added, the cells were cultured at 37° C. for 48 hours.
(§8) 3) 20 μL of CCK-8 solution (Beoytime) was added to the well to be tested, mixed gently, without generating bubbles, and continuously incubated at 37° C. for 2 hours. OD450 was read on a microplate reader (purchased from Molecular Devices, Model:SpectraMax M5), and cell viability was calculated:
(§9) Cell activity(%)=(A(drug treatment group)−A(blank control))/(A(vehicle control)−A(blank control))×100%
(§10) wherein A was the reading of the microplate reader.

[13] = Cytotoxicity test of drug, CCK-8 kit; conditions: African green monkey; Vero E6 cells; CCK-8; 48 hours
Procedure: as §4, §5, §6, §7, §8, §9, §10

[14] = tested on: Vero cells; assay: Cytotoxicity test of the drug, enterovirus example (CellTiter-Glo); conditions: enterovirus table; cell line not given
[15] = tested on: influenza virus A/California/07/2009; assay: microbe, parasite or virus in culture; conditions: unidentified influenza virus, MDCK, 72 h, read-out: EC50 influenza virus A/California/07/2009 (CA07-MDCK)
[16] = tested on: bunya virus; conditions: preliminary test results; Huh7 cells
[17] = tested on: CA16; assay: Anti-enterovirus activity, CA16-RD; conditions: RD cells

CCn1c(CO)nn(-c2cc(O[C@@H](C)C(F)(F)F)c(C(=O)Nc3c(F)cccc3Cl)cc2F)c1=O [BAY 2402234]
EC50 [1]: 30 nM | CC50 at 72 h [2]: 270 nM | EC50 ([3]; Enterovirus, 120 h, Vero cells, 5 days): < 50 nM | inhibitory effect on enterovirus ([3]; preliminary test results): had inhibitory effect | EC50 [4]: 40 nM | EC50 [5]: > 100000 nM | EC50 [6]: > 100000 nM | EC50 [7]: 10 ± 0.3 nM | EC50 [8]: > 100000 nM | inhibition of viral RNA load in the cells ([9]; 24 h after infection by SARS-CoV-2, FIG. 1(a)): can inhibit the viral RNA load | inhibition of viral RNA load in the cells ([9]; 48 h after infection by SARS-CoV-2, FIG. 1(b)): can inhibit the viral RNA load | EC50 ([9]; 24 hours after the infection): 7 nM | EC50 ([9]; 48 hours after the infection): 2.7 nM | inhibition of replication of the SARS-CoV-2 virus genome in the infected supernatant ([9]; at 10 μM, 3.3 μM, 1.1 μM, 0.3 μM, 0.1 μM and 0.03 μM, FIG. 1): could effectively inhibit the replication | inhibitory effect on zika virus [10]: had inhibitory effect | EC50 [11]: 7 nM | effect on cell viability (cytotoxicity) [12]: did not change the cell viability | CC50 at 48 h [13]: 199000 nM | CC50 [14]: > 300000 nM | EC50 [15]: 30 ± 9 nM | inhibitory effect on bunya virus [16]: had inhibitory effect | EC50 [17]: > 100000 nM
